Measured values as given in US9382254B2, “Compounds and pharmaceutical compositions thereof for the treatment of cystic fibrosis” (Galapagos NV, priority 2013, dated 2016).

How the values were obtained:
Type in all cases: cell-based
CFTR ΔF508 mutant [1] = target: T1, CFTR ΔF508 mutant (Homo sapiens, UniProt P13569, DEL508-508); assay: YFP-halide influx assay for the CFTR-ΔF508 mutation, gluconate buffer; conditions: CFBE41o- cells, forskolin 10.67 μM
T1 construct: expressed in transfected cells; host or cells: CFBE41o- (adenoviral transduction)
T1 sequence (P13569 with tags, fused parts or gaps DEL508-508): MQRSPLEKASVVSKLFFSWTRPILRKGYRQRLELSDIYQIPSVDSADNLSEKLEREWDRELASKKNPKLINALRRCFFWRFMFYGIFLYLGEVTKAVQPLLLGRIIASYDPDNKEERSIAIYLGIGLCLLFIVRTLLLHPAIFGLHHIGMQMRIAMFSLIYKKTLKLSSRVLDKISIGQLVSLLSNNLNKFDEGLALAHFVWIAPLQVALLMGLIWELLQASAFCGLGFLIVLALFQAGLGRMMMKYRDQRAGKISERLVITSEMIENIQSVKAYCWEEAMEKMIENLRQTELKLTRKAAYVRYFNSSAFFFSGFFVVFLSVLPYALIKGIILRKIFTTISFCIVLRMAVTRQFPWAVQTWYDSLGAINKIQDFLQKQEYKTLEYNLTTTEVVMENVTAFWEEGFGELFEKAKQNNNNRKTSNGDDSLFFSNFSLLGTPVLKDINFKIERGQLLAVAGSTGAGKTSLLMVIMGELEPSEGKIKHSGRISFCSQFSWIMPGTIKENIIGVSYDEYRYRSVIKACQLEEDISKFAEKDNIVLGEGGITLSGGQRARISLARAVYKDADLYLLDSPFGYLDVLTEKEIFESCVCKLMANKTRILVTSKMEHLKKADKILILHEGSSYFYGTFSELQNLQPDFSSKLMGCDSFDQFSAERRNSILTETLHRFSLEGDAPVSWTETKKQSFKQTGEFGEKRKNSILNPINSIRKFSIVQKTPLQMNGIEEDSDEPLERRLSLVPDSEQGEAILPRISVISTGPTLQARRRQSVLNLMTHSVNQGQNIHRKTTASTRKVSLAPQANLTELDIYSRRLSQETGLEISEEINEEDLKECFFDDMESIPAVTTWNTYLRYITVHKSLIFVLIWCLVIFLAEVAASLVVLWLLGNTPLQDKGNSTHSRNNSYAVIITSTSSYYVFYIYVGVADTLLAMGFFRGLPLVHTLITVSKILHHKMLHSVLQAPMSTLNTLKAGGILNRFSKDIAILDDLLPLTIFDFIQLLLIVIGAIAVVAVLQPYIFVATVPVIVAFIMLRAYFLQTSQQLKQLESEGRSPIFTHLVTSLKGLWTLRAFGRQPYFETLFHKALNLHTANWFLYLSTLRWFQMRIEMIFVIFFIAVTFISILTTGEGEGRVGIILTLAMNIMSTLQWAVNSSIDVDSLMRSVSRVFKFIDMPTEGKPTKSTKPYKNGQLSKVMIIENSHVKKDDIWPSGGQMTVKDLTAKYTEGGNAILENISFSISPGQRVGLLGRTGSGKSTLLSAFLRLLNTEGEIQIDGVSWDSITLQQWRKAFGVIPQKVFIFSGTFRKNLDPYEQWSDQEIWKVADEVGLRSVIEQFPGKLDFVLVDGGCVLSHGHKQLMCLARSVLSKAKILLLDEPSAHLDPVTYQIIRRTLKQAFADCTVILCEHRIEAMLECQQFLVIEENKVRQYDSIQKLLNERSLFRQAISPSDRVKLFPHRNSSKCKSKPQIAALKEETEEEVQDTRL
Method in brief: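 Channel opening is read as the fall in YFP fluorescence over 7 s following iodide injection, expressed as 1-F/F0 and plotted versus compound concentration to derive EC50. Cells used were CFBE41o- expressing adenoviral ΔF508 CFTR and halide-sensitive YFP, rescued by 24 h at 27 °C or 24 h modulator treatment at 37 °C.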

CFTR ΔF508 mutant [2] = target: T1, CFTR ΔF508 mutant; assay: YFP-halide influx assay for the CFTR-ΔF508 mutation, PBS buffer (96 well); conditions: CFBE41o- cells, forskolin 10.67 μM
Method in brief: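 CFBE41o- cells were adenovirally transduced with CFTR ΔF508 and YFP H148Q/I152L, then incubated 24 h at 27 °C or with a CFTR modulator at 37 °C. I⁻-induced fluorescence quenching was recorded over 7 s after injection; response expressed as 1−F/F0, with EC50 from concentration plots.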

CFTR ΔF508 mutant [3] = target: T1, CFTR ΔF508 mutant; assay: YFP-halide influx assay for the CFTR-ΔF508 mutation (384 well, FDSS/μCell); conditions: CFBE41o- cells, CFTR-ΔF508, 1×D-PBS, fluorescence after 36 seconds
Method in brief: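 Potentiator read-out as 1−F/F0, F taken 36 s after iodide addition, EC50 fitted against compound concentration. Cells: CFBE41o- expressing ΔF508 CFTR plus halide-sensitive YFP via adenovirus, rescued by 27 °C for 24 h or 24 h modulator at 37 °C.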

CFTR G551D mutant = target: T2, CFTR G551D mutant (Homo sapiens, UniProt P13569, G551D); assay: YFP-halide influx assay for the CFTR-G551D mutation; conditions: HEK293 cells, forskolin 10.67 μM
T2 construct: expressed in transfected cells; host or cells: HEK293 (reverse transfection with plasmid)
T2 sequence (P13569 whole entry G551D): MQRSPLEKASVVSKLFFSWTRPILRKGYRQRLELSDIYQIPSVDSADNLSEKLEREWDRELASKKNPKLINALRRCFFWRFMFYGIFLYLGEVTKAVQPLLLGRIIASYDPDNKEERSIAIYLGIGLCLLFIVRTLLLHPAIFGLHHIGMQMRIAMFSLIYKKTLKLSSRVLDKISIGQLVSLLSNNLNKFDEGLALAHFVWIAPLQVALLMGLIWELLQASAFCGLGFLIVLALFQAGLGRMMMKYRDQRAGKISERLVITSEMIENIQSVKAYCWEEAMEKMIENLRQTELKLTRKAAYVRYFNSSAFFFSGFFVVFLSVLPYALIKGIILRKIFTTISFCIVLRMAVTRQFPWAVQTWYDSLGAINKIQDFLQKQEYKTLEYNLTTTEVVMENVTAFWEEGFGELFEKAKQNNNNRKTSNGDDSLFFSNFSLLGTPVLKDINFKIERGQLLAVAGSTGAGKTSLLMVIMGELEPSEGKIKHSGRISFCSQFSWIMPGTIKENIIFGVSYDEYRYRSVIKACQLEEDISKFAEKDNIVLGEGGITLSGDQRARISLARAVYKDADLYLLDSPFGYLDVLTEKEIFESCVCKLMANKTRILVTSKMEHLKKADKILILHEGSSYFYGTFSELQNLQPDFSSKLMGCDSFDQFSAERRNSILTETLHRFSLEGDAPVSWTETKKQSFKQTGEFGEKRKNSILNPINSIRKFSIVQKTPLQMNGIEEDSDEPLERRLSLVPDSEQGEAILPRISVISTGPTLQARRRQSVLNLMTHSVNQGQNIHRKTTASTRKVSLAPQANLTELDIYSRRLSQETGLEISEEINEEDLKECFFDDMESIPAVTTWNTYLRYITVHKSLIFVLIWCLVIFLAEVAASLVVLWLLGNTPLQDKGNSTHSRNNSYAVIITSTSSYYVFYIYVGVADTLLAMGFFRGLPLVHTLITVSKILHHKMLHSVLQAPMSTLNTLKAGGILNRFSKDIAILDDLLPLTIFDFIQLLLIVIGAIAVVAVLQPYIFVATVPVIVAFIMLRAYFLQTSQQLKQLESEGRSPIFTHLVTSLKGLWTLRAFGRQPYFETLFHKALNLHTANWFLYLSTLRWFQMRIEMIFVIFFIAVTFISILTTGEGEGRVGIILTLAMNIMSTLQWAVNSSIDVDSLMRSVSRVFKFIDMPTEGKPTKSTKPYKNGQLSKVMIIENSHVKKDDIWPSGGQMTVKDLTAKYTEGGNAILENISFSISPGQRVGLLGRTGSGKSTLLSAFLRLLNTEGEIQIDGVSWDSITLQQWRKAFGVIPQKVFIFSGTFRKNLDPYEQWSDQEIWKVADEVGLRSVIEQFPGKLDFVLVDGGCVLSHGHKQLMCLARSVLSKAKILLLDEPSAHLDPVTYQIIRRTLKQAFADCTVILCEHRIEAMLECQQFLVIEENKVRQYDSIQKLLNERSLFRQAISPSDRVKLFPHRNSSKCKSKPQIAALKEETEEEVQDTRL
Method in brief: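 Channel opening potentiation measured as 1−F/F0, where F is YFP fluorescence 7 s after iodide injection and F0 before; EC50 taken from concentration plot. Cells: HEK293 transiently expressing CFTR G551D plus halide-sensitive YFP (H148Q, I152L, F47L), 24 h at 37 °C, 5% CO2.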

EC50 (CFTR ΔF508 mutant [1]) | EC50 (CFTR ΔF508 mutant [2]) | EC50 (CFTR ΔF508 mutant [3]) | EC50 (CFTR G551D mutant) | SMILES
401 nM | 220 nM | 146 nM | 3070 nM | NC(=O)c1cc(S(=O)(=O)N2CCOCC2)sc1NC(=O)c1ccccc1C(F)(F)F [Compound 78, 5-(morpholinosulfonyl)-2-(2-(trifluoromethyl)benzamido)thiophene-3-carboxamide]
293 nM | 114 nM | 68.4 nM | 5680 nM | CC(C)(C)C(=O)Nc1sc(S(=O)(=O)c2cccc(F)c2)cc1C(N)=O [Compound 122, 5-(3-fluorophenylsulfonyl)-2-pivalamidothiophene-3-carboxamide]
50.5 nM | 35.5 nM | 79.5 nM | 1870 nM | NC(=O)c1cc(S(=O)(=O)N2CC=C(C(F)(F)F)CC2)sc1NC(=O)c1ccccc1F [Compound 158, 2-(2-fluorobenzamido)-5-(4-(trifluoromethyl)-5,6-dihydropyridin-1(2H)-ylsulfonyl)thiophene-3-carboxamide]
48.4 nM | 38.7 nM | 210 nM | 272 nM | COc1ccc(CN(C)S(=O)(=O)c2cc(C(N)=O)c(NC(=O)c3cc[nH]n3)s2)cc1F [Compound 160, N-(3-carbamoyl-5-(N-(3-fluoro-4-methoxybenzyl)-N-methylsulfamoyl)thiophen-2-yl)-1H-pyrazole-3-carboxamide]
104 nM | 37.5 nM | 81.4 nM | 756 nM | COc1ccc(CN(C)S(=O)(=O)c2cc(C(N)=O)c(NC(=O)c3cc[nH]n3)s2)cc1 [Compound 171, N-(3-carbamoyl-5-(N-(4-methoxybenzyl)-N-methylsulfamoyl)thiophen-2-yl)-1H-pyrazole-3-carboxamide]
106 nM | 61.7 nM | 96.8 nM | 527 nM | CN(Cc1ccc(C(F)(F)F)cc1)S(=O)(=O)c1cc(C(N)=O)c(NC(=O)c2cc[nH]n2)s1 [Compound 175, N-(3-carbamoyl-5-(N-methyl-N-(4-(trifluoromethyl)benzyl)sulfamoyl)thiophen-2-yl)-1H-pyrazole-3-carboxamide]
22.2 nM | 31.2 nM | 84.9 nM | 332 nM | CC(C)c1ccccc1S(=O)(=O)c1cc(C(N)=O)c(NC(=O)c2ccccc2F)s1 [Compound 179, 2-(2-fluorobenzamido)-5-(2-isopropylphenylsulfonyl) thiophene-3-carboxamide]
153 nM | 25.7 nM | 12.7 nM | 526 nM | CC1(C)CN(S(=O)(=O)c2cc(C(N)=O)c(NC(=O)c3ccccc3F)s2)C1 [Compound 183, 5-(3,3-dimethylazetidin-1-ylsulfonyl)-2-(2-fluorobenzamido)thiophene-3-carboxamide]
60.6 nM | 33.4 nM | 20.7 nM | 298 nM | CN(CC(C)(C)C)S(=O)(=O)c1cc(C(N)=O)c(NC(=O)c2cc[nH]n2)s1 [Compound 192, N-(3-carbamoyl-5-(N-methyl-N-neopentylsulfamoyl)thiophen-2-yl)-1H-pyrazole-3-carboxamide]
154 nM | 38.3 nM | 20.7 nM | 185 nM | CN(CCC(F)(F)F)S(=O)(=O)c1cc(C(N)=O)c(NC(=O)c2cc[nH]n2)s1 [Compound 194, N-(3-carbamoyl-5-(N-methyl-N-(3,3,3-trifluoropropyl)sulfamoyl)thiophen-2-yl)-1H-pyrazole-3-carboxamide]
72.6 nM | 31.4 nM | 6.9 nM | 134 nM | CC1(C)CN(S(=O)(=O)c2cc(C(N)=O)c(NC(=O)c3cc[nH]n3)s2)C1 [Compound 206, N-(3-carbamoyl-5-(3,3-dimethylazetidin-1-ylsulfonyl)thiophen-2-yl)-1H-pyrazole-3-carboxamide]
317 nM | 125 nM | 48.1 nM | 442 nM | CN(Cc1ccncc1)S(=O)(=O)c1cc(C(N)=O)c(NC(=O)c2cc[nH]n2)s1 [Compound 207, N-(3-carbamoyl-5-(N-methyl-N-(pyridin-4-ylmethyl)sulfamoyl)thiophen-2-yl)-1H-pyrazole-3-carboxamide]
73.9 nM | 34.5 nM | 6 nM | 314 nM | CN(C1CC1)S(=O)(=O)c1cc(C(N)=O)c(NC(=O)c2cc[nH]n2)s1 [Compound 209, N-(3-carbamoyl-5-(N-cyclopropyl-N-methylsulfamoyl)thiophen-2-yl)-1H-pyrazole-3-carboxamide]
184 nM | 70.3 nM |  |  | NC(=O)c1cc(S(=O)(=O)N2CCOCC2)sc1NC(=O)c1c(O)cc(F)cc1F [Compound 212, 2-(2,4-difluoro-6-hydroxybenzamido)-5-(morpholinosulfonyl) thiophene-3-carboxamide]
87.3 nM | 118 nM | 52.8 nM | 541 nM | NC(=O)c1cc(S(=O)(=O)N2CCC(F)(F)CC2)sc1NC(=O)C1(O)CCC1 [Compound 213, 5-(4,4-difluoropiperidin-1-ylsulfonyl)-2-(1-hydroxycyclobutanecarboxamido) thiophene-3-carboxamide]
117 nM | 37.2 nM | 25.8 nM |  | NC(=O)c1cc(S(=O)(=O)N2CCC(F)(F)CC2)sc1NC(=O)c1c(O)cc(F)cc1F [Compound 214, 2-(2,4-difluoro-6-hydroxybenzamido)-5-(4,4-difluoropiperidin-1-ylsulfonyl) thiophene-3-carboxamide]
292 nM | 862 nM |  |  | CC(C)c1cc(C(=O)Nc2sc(S(=O)(=O)N3CCC(F)(F)CC3)cc2C(N)=O)c(O)c(C(C)C)c1 [Compound 215, 5-(4,4-difluoropiperidin-1-ylsulfonyl)-2-(2-hydroxy-3,5-diisopropylbenzamido) thiophene-3-carboxamide]
709 nM | 216 nM |  |  | Cc1cccc(C(=O)Nc2sc(S(=O)(=O)N3CCOCC3)cc2C(N)=O)c1O [Compound 216, 2-(2-hydroxy-3-methylbenzamido)-5-(morpholinosulfonyl) thiophene-3-carboxamide]
195 nM | 164 nM |  |  | CC(C)(CO)C(=O)Nc1sc(S(=O)(=O)N2CCC(F)(F)CC2)cc1C(N)=O [Compound 217, 5-(4,4-difluoropiperidin-1-ylsulfonyl)-2-(3-hydroxy-2,2-dimethylpropanamido) thiophene-3-carboxamide]
196 nM | 72.7 nM |  | 410 nM | CN(CC1CC1)S(=O)(=O)c1cc(C(N)=O)c(NC(=O)c2ccccc2F)s1 [Compound 218, 5-(N-(cyclopropylmethyl)-N-methylsulfamoyl)-2-(2-fluorobenzamido) thiophene-3-carboxamide]
> 1000 nM | > 1000 nM |  |  | CC(C)(O)C(=O)Nc1sc(S(C)(=O)=O)cc1C(N)=O [Compound 219, 2-(2-hydroxy-2-methylpropanamido)-5-(methylsulfonyl) thiophene-3-carboxamide]
> 1000 nM | 2310 nM |  |  | CC(C)S(=O)(=O)c1cc(C(N)=O)c(NC(=O)C(C)(C)O)s1 [Compound 220, 2-(2-hydroxy-2-methylpropanamido)-5-(isopropylsulfonyl) thiophene-3-carboxamide]
110 nM | 49.4 nM | 26.1 nM | 1160 nM | CC(C)(O)C(=O)Nc1sc(S(=O)(=O)c2ccc(F)cc2)cc1C(N)=O [Compound 221, 5-(4-fluorophenylsulfonyl)-2-(2-hydroxy-2-methylpropanamido) thiophene-3-carboxamide]
22.9 nM | 26.1 nM | 33.2 nM | 583 nM | Cc1cc(F)ccc1S(=O)(=O)c1cc(C(N)=O)c(NC(=O)C2(O)CC2)s1 [Compound 222, 5-(4-fluoro-2-methylphenylsulfonyl)-2-(1-hydroxycyclopropanecarboxamido) thiophene-3-carboxamide]
37.9 nM | 31.8 nM | 62.1 nM | 327 nM | NC(=O)c1cc(S(=O)(=O)c2ccc(F)cc2)sc1NC(=O)c1ccccc1O [Compound 223, 5-(4-fluorophenylsulfonyl)-2-(2-hydroxybenzamido) thiophene-3-carboxamide]
 | 42.6 nM | 66.1 nM | 1760 nM | CC(C)(O)C(=O)Nc1sc(S(=O)(=O)c2ccc3c(c2)OC(F)(F)O3)cc1C(N)=O [Compound 310, 5-(2,2-difluorobenzo[d][1,3]dioxol-5-ylsulfonyl)-2-(2-hydroxy-2-methylpropanamido) thiophene-3-carboxamide]
 | 15.2 nM | 3.5 nM | 607 nM | CC(O)C(=O)Nc1sc(S(=O)(=O)c2ccccc2OC(F)(F)F)cc1C(N)=O (centres unmarked) [Compound 311, 2-(2-hydroxypropanamido)-5-(2-(trifluoromethoxy)phenylsulfonyl) thiophene-3-carboxamide]
